Where two headings read alike, the source gives them in different places.
Columns and labels:
[1] = test system: H61 tumor cell xenografts; experiment: In vivo assay: H61 tumor xenografts in nude mice
Protocol: The compound described in Example 15 was tested for its ability to inhibit the growth of H61 tumor cell xenografts in nude mice. H61 Cells are fibroblasts transformed to a malignant state by transfection with an activated mutant form of human h-ras. Ten to 30 mg fragments of H61 tumors were inoculated SC (subcutaneously) in the axial region into female nude mice with a trocar needle on day zero of the experiment. The mice were randomized to treatment groups and were then given SC injections of the compound described in Example 15 suspended in 10% cremofor/10% ethanol/80% water twice each day on Days 3-17 of the experiment. At Day 12 of the experiment, the median control tumor burden was 1958 mg as assessed by caliper measurements.

[2] = test system: H61 cells: NIH transformed 3T3 H-ras cells; experiment: Clonogenic assay (6 well plates, soft agar); assay type: cell-based; settings: 312 h, colonies counted after Day 13, read-out: Clonogenic Assay IC50
In short: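 Soft-agar colony formation: cells seeded in 0.3% agar top layer with 20% calf serum over a 0.6% agar base, drug or DMSO added at 4 µL per mL agar/medium. Incubated at 37 °C, 5% CO2; INT (1 mg/mL) added on day 13 to stain colonies.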

[3] = test system: ras farnesylation in ras-transformed cells; experiment: Gel shift assay; assay type: cell-based; settings: ras-transformed cells, 18-hour incubation; read-out: Gel Shift (μM) MED (minimal effective dose to observe inhibition of ras farnesylation)
In short: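 Ras-transformed cells (2×10^6 per condition) treated with farnesylation inhibitor at varying concentrations for 18 h. Ras immunoprecipitated from lysates with Y13-259, resolved on 14% SDS gels and detected by pan-ras Western blot with ECL, farnesylated and unfarnesylated ras separating by mobility shift.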

[4] = target: T1, SF9 affinity purified rat farnesyl protein transferase (Rattus norvegicus, UniProt Q02293+Q04631); experiment: PFT inhibitory activity (radiolabeled farnesyl pyrophosphate, streptavidin bead assay); assay type: biochemical
T1 construct: made in house; host or cells: Sf9 insect cells (baculovirus system inferred from b7)
T1 sequence (Q02293 whole entry, one chain of several): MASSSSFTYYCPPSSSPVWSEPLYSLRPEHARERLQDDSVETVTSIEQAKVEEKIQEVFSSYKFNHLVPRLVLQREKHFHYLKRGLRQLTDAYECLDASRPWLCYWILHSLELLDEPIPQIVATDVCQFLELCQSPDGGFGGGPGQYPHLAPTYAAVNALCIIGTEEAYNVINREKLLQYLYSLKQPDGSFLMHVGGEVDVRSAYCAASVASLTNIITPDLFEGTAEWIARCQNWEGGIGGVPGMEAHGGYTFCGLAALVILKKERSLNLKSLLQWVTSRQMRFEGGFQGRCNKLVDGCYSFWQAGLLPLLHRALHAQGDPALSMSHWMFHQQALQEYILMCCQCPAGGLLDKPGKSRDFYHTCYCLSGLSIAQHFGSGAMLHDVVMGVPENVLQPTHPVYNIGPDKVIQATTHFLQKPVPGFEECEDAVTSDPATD
In short: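 HEPES pH 7.4 with 5 mM potassium phosphate (also run without), 20 μM ZnCl2, 5 mM DTT, 5 mM MgCl2, 0.1% PEG 8000; [3H]farnesyl pyrophosphate 134 nM and biotinyl-Ahe-TKCVIM peptide 0.2 μM final. Incubated 30 min at 30° C, stopped with acidic magnesium acetate/streptavidin bead buffer; bead-bound radioactivity counted.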

[5] = test system: mammary and salivary carcinomas; settings: daily administration; cited from earlier work
[6] = test system: EJ-1 human bladder carcinoma, HT1080 human fibrosarcoma and human colon carcinoma xenografts; settings: 100 mg/kg; cited from earlier work
[7] = test system: human lung carcinoma with K-ras mutation and p53 deletion; settings: nude mice; cited from earlier work
[8] = HEPES buffer pH 7.4, without 5 mM potassium phosphate, read-out: IC50 (μM) Hepes
[9] = HEPES buffer pH 7.4 containing 5 mM potassium phosphate, read-out: IC50 (μM) 5 mM K3 PO4 -2

Row | IC50 [4, 8] [µM] | IC50 [4, 9] [µM] | SMILES | IC50 [2] [nM] | minimal effective concentration [3] [µM] | other results
1 |  |  | CC[C@H](C)[C@@H](CO[C@@H](Cc1ccccc1)C(=O)N[C@@H](CCS(C)(=O)=O)C(=O)OC(C)C)NC[C@@H](N)CS [L-744,832] |  |  | tumor regression [5]: caused tumor regression
2 |  |  | COC(=O)[C@H](CCSC)NC(=O)[C@H](/C=C\[C@@H](/C=C/[C@@H](N)CS)C(C)C)Cc1ccccc1 [Example B1086] |  |  | tumor growth [6]: inhibit tumor growth
3 |  |  | CSCC[C@H](NC(=O)c1ccc(NC[C@@H](N)CS)cc1-c1ccccc1)C(=O)O [FTI276] |  |  | tumor growth [7]: selectively block tumor growth
4 | 0.29 | 0.007 | CCC(CNC(=O)CN(Cc1ccc(OCc2ccccc2)cc1)C(=O)[C@H](Cc1c[nH]cn1)NC(=O)OCc1ccccc1)c1ccccc1 (stereo partly drawn) [Example 16, (S)-[1-{(4-Benzyloxy-benzyl)-[(2-phenyl-butylcarbamoyl)-methyl]-carbamoyl}-2-(1H-imidazole-4-yl)-ethyl]-carbamic Acid Benzyl Ester] | 400 | 0.01 to 0.05 | 
5 | 1.6 | 0.013 | CC(CNC(=O)CN(Cc1ccc(C(F)(F)F)cc1)C(=O)[C@H](Cc1c[nH]cn1)NC(=O)OCc1ccccc1)c1ccccc1 (stereo partly drawn) [Example 38, (S)-{2-(1H-Imidazole-4-yl)-1-[[(2-phenyl-propylcarbamoyl)-methyl]-(4-trifluoromethyl-benzyl)-carbamoyl]-ethyl}-carbamic Acid Benzyl Ester] | 220 | 0.2 | 

Row | SMILES | IC50 [4, 8] [µM] | IC50 [4, 9] [µM] | IC50 [2] [nM] | minimal effective concentration [3] [µM] | other results
6 | CC(C)(CNC(=O)CN(Cc1ccc(OCc2ccccc2)cc1)C(=O)[C@H](Cc1cnc[nH]1)NC(=O)OCc1ccccc1)c1ccccc1 [Example 15, (S)-[1-{(4-Benzyloxy-benzyl)-[(2-methyl-2-phenyl-propylcarbamoyl)-methyl]-carbamoyl}-2-(3H-imidazole-4-yl)-ethyl]-carbamic Acid Benzyl Ester] | 0.12 | 0.007 | 190 | 0.01 to 0.05 | median tumor burden ([1]; 125 mg/kg/injection SC twice each day, Days 3-17, Day 12, median control tumor burden 1958 mg): 106 mg; inhibition of tumor growth ([1]; 125 mg/kg/injection SC twice each day, Day 12): 95%; tumor growth delay ([1]; 125 and 78 mg/kg/injection dose levels): tumor growth delay also consistent with significant inhibition of tumor growth; tolerability / host toxicity ([1]; 125 and 78 mg/kg/injection dose levels, nude mice): well-tolerated with minimal or no host toxicity
